Consider 31 compounds from patent publication US20110039860A1, “SOLUBLE EPOXIDE HYDROLASE INHIBITORS, COMPOSITIONS CONTAINING SUCH COMPOUNDS AND METHODS OF TREATMENT” (priority 2008, published 2011).

The target of the assay is T1, human sEH enzyme (Homo sapiens, UniProt P34913).
T1 construct: His-tag (pET100 vector) (N, cleaved yes); made in house; host or cells: E. coli
T1 sequence (P34913 1-555): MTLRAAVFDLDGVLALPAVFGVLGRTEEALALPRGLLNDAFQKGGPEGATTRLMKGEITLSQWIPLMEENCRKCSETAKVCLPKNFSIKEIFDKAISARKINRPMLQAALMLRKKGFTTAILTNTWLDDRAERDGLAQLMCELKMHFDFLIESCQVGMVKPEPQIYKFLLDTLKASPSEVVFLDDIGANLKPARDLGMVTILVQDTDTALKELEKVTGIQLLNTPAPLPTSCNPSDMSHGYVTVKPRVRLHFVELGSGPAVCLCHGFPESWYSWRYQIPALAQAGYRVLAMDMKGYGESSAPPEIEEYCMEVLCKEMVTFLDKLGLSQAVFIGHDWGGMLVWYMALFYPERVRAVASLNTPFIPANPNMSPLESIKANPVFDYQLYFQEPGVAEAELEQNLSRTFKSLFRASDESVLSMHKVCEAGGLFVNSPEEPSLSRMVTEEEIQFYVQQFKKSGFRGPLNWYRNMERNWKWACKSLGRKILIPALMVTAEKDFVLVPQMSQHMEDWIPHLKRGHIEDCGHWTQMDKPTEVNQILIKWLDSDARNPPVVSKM
As to the kind of experiment: sEH human enzyme assay (fluorescence based enzyme in vitro assay). The assay is classed as biochemical. As to conditions: recombinant human sEH about 1 nM, fluorescence substrate S7 10 uM, 25° C.; read-out: IC50 [nM] for human sEH enzyme inhibition. An excerpt: Preparation of Recombinant sEH Human Enzyme
The DNA for expressing sEH was designed based on a […] sEH cDNA, modified to optimize for expression both in E. coli and insect cells. The designed DNA fragment encodes a protein sequence that is identical to full length human sEH, and the DNA was synthesized in vitro. The DNA was then subcloned into the pET100 vector that will generate a fusion protein with an N-terminal His-tag. The recombinant protein was expressed in E. coli. The sEH enzyme was affinity purified by a Ni^++ column. His-tag was removed by Enter Kinase (EK) digestion. The purified enzyme aliquots were frozen and held at −80° C. for later use. Fluorescence Based Enzyme in vitro Assay For each assay (100 ul), an aliquot of enzymes (about 1 nM final concentration) was incubated with a fluorescence substrate, S7 (10 uM final concentration), in sEH assay buffer (25 mM HEPES, […], 0.1 mg/ml BSA) in a 96-well plate. The kinetic reaction reading (Ex330/Em465) was conducted using a plate reader, Spectra max (Molecular Devices) at 25° C.
Usually IC50 stands for the midpoint of a concentration-inhibition curve. In the case of `O=C(c1cccnc1)N1CCC(CNc2ccc(-c3ccccc3C(F)(F)F)cn2)CC1` [Compound I-4], the IC50 worked out at 9 nM. Next, `O=C(O)C1CCN(C(=O)c2ccc(-c3ccc(NCCc4c(F)cccc4Cl)nc3)c(C(F)(F)F)c2)CC1` [II-1, 1-[4-(6-{[2-(2-chloro-6-fluorophenyl)ethyl]amino}pyridin-3-yl)-3-(trifluoromethyl)benzoyl]piperidine-4-carboxylic acid]: 200 nM; `FC(F)(F)c1ccccc1-c1ccc(NCc2ccccc2)nc1` [Compound I-8]: 25 nM; `FC(F)(F)c1ccccc1-c1ccc(NCC2CCCCC2)nn1` [Compound I-17]: 8 nM. Next, `O=C(O)c1cccc(-c2ccc(-c3ccc(NCC4CCCCC4)nc3)c(C(F)(F)F)c2)c1` [II-3]: 5 nM. Turning to `O=S(=O)(c1ccccc1C(F)(F)F)N1CCC(CNc2ccc(-c3ccccc3C(F)(F)F)cn2)CC1` [Compound I-13], the IC50 was 18 nM.

Consider `FC(F)(F)c1cc(-c2cccnc2)nn1-c1ccc(NCC2CCCCC2)nc1` [III-1, N-(cyclohexylmethyl)-5-[3-pyridin-3-yl-5-(trifluoromethyl)-1H-pyrazol-1-yl]pyridin-2-amine], for which the IC50 was found to be 3 nM. Turning to `FC(F)(F)c1cc(-c2nnn[nH]2)ccc1-c1ccc(NCC2CCCCC2)nc1` [Compound I-16], the IC50 came out at 53 nM.

With `O=C(O)CCCOc1ccc(-c2ccc(NCC3CCCCC3)nc2)c(C(F)(F)F)c1` [II-2], the half-maximal inhibitory concentration (IC50) came to 66 nM.

For the compound `FC(F)(F)c1cccnc1-c1ccc(NCC2CCCCC2)nc1` [Compound I-7], the IC50 was determined as 32 nM. For `O=C(O)C12CCC(CNc3ccc(-c4c(F)cccc4C(F)(F)F)cn3)(CC1)C2` [Compound I-22] the value was 130 nM; for `Clc1ccccc1-c1ccc(NCC2CCCCC2)nc1` [Compound I-11], 32 nM. Next, `CC(C)(C)OC(=O)N1CCC(CNc2ccc(-c3cnccc3C(F)(F)F)cn2)CC1` [Compound I-15]: 8 nM; `O=C(NCC1CCCCC1)c1ccc(-c2ccc(NCC3CCCCC3)nc2)c(C(F)(F)F)c1` [II-4]: 4 nM; `FC(F)(F)c1ccccc1-c1ccc(NCC2CC2)nc1` [Compound I-26]: 53 nM. For `Fc1cccc(Cl)c1CCNc1ccc(-c2c(F)cccc2C(F)(F)F)cn1` [Compound I-5] the value was 2 nM; for `Fc1cccc(C(F)(F)F)c1-c1ccc(NCC2CCCCC2)nc1` [Compound I-1, N-(cyclohexylmethyl)-5-[2-fluoro-6-(trifluoromethyl)phenyl]pyridin-2-amine], 1 nM; for `FC(F)(F)c1ccccc1-c1ccc(NCCC(c2ccccc2)c2ccccc2)nc1` [Compound I-9], 832 nM. For the compound `FC(F)(F)Oc1cccc(CNc2ccc(-c3ccccc3C(F)(F)F)cn2)c1` [Compound I-12], the half-maximal inhibitory concentration (IC50) stood at 52 nM. Next, `FC(F)(F)c1ccccc1-c1ccc(NCCc2c[nH]cn2)nc1` [Compound I-21]: 100 nM. As for `Fc1cccc(C(F)(F)F)c1-c1ccc(NCCc2c[nH]cn2)nc1` [Compound I-20], the IC50 amounted to 67 nM.

On to `FC(F)(F)c1ccccc1-c1ccc(NCCN2CCN(c3cccc(Cl)c3)CC2)nc1` [Compound I-23], for which the half-inhibitory concentration (IC50) was 7 nM.

Consider `FC(F)(F)c1ccccc1-c1ccc(NCc2cccc3ccccc23)nc1` [Compound I-10], for which the IC50 stood at 31 nM.

For the compound `O=C(c1ccccc1C(F)(F)F)N1CCC(CNc2ccc(-c3ccccc3C(F)(F)F)cn2)CC1` [Compound I-6], the IC50 was 3 nM. With `FC(F)(F)c1ccccc1-c1ccc(NC2CCOCC2)nc1` [Compound I-24], the IC50 was determined as 200 nM. For `O=C(N[C@H]1CC[C@H](CNc2ccc(-c3ccccc3C(F)(F)F)cn2)CC1)c1ccccc1C(F)(F)F` [Compound I-14], the IC50 was 7 nM.

As to `FC(F)(F)c1ccccc1-c1cnc(NCC2CCCCC2)cn1` [Compound I-18], the IC50 was determined as 651 nM. For `NC(=O)c1ccc(-c2ccc(NCC3CCCCC3)nc2)c(C(F)(F)F)c1` [II-5] the value was 4 nM; for `O=C(O)[C@H]1CC[C@H](CCNc2ccc(-c3c(F)cccc3C(F)(F)F)cn2)CC1` [Compound I-2], 19 nM. Next, `FC(F)(F)c1ccccc1-c1ccc(NCc2cccnc2)nc1` [Compound I-19]: 92 nM; `FC(F)(F)c1ccnc(N2CCN(CCNc3ccc(-c4ccccc4C(F)(F)F)cn3)CC2)n1` [Compound I-25]: 26 nM.
